According to the supplement of paper PMC10307832:

Experiments:
Experiment in all cases: relative viability (nuclei count vs DMSO), 5 days (fraction); higher = more cells survive
[1] = test system: NCI-H441
In short: (§1)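 Dosing by pin tool came one day after lung cancer cell lines were seeded in 1536-well plates, using either one drug or a fixed anchor-drug dose plus five library-drug doses (not always all listed) in √10 steps. After 5 days, nuclei were counted on 4× images. Relative viability is treated-well nuclei count divided by vehicle-well nuclei count, and values are medians of duplicate plates.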

[2] = test system: ChaGo-K-1
In short: as §1

[3] = test system: NCI-H3122
In short: as §1

[4] = test system: COR-L 105
In short: as §1

[5] = test system: NCI-H322M
In short: as §1

[6] = test system: NCI-H1915
In short: as §1

[7] = test system: CAL-12T
In short: as §1

[8] = test system: NCI-H1975
In short: as §1

[9] = test system: LXF-289
In short: as §1

[10] = test system: NCI-H2023
In short: as §1

[11] = test system: HCC-78
In short: as §1

[12] = test system: ABC-1
In short: as §1

[13] = test system: EMC-BAC-2
In short: as §1

[14] = test system: NCI-H2126
In short: as §1

[15] = test system: HCC-15
In short: as §1

[16] = test system: NCI-H2085
In short: as §1

[17] = test system: UMC-11
In short: as §1

[18] = test system: NCI-H1666
In short: as §1

[19] = test system: NCI-H358
In short: as §1

[20] = test system: NCI-H1993
In short: as §1

[21] = test system: EPLC-272H
In short: as §1

[22] = test system: NCI-H1755
In short: as §1

[23] = test system: HOP-62
In short: as §1

Oc1nc(-c2ccc(C(F)(F)F)cc2)nc2c1CSCC2 [XAV939] + N=C(N)NC(=N)NCCc1ccccc1 [Phenformin] (partner 250 µM)
relative viability ([1]; first compound 0.08 µM): 0.856
relative viability ([1]; first compound 0.253 µM): 0.861
relative viability ([1]; first compound 0.8 µM): 1
relative viability ([1]; first compound 2.53 µM): 0.851
relative viability ([2]; first compound 0.08 µM): 0.51
relative viability ([2]; first compound 0.253 µM): 0.476
relative viability ([2]; first compound 0.8 µM): 0.412
relative viability ([2]; first compound 2.53 µM): 0.409
relative viability ([3]; first compound 0.08 µM): 0.38
relative viability ([3]; first compound 0.253 µM): 0.336
relative viability ([3]; first compound 0.8 µM): 0.338
relative viability ([3]; first compound 2.53 µM): 0.39
relative viability ([4]; first compound 0.08 µM): 0.51
relative viability ([4]; first compound 0.253 µM): 0.492
relative viability ([4]; first compound 0.8 µM): 0.434
relative viability ([4]; first compound 2.53 µM): 0.381
relative viability ([5]; first compound 0.08 µM): 0.88
relative viability ([5]; first compound 0.253 µM): 0.716
relative viability ([5]; first compound 0.8 µM): 0.625
relative viability ([5]; first compound 2.53 µM): 0.578
relative viability ([6]; first compound 0.08 µM): 0.384
relative viability ([6]; first compound 0.253 µM): 0.258
relative viability ([6]; first compound 0.8 µM): 0.377
relative viability ([6]; first compound 2.53 µM): 0.369
relative viability ([7]; first compound 0.08 µM): 0.592
relative viability ([7]; first compound 0.253 µM): 0.507
relative viability ([7]; first compound 0.8 µM): 0.46
relative viability ([7]; first compound 2.53 µM): 0.417
relative viability ([8]; first compound 0.08 µM): 0.409
relative viability ([8]; first compound 0.253 µM): 0.42
relative viability ([8]; first compound 0.8 µM): 0.382
relative viability ([8]; first compound 2.53 µM): 0.37
relative viability ([9]; first compound 0.08 µM): 0.556
relative viability ([9]; first compound 0.253 µM): 0.48
relative viability ([9]; first compound 0.8 µM): 0.539
relative viability ([9]; first compound 2.53 µM): 0.546
relative viability ([10]; first compound 0.08 µM): 0.424
relative viability ([10]; first compound 0.253 µM): 0.391
relative viability ([10]; first compound 0.8 µM): 0.365
relative viability ([10]; first compound 2.53 µM): 0.402
relative viability ([11]; first compound 0.08 µM): 0.711
relative viability ([11]; first compound 0.253 µM): 0.62
relative viability ([11]; first compound 0.8 µM): 0.66
relative viability ([11]; first compound 2.53 µM): 0.516
relative viability ([12]; first compound 0.08 µM): 0.212
relative viability ([12]; first compound 0.253 µM): 0.272
relative viability ([12]; first compound 0.8 µM): 0.256
relative viability ([12]; first compound 2.53 µM): 0.233
relative viability ([13]; first compound 0.08 µM): 0.551
relative viability ([13]; first compound 0.253 µM): 0.459
relative viability ([13]; first compound 0.8 µM): 0.424
relative viability ([13]; first compound 2.53 µM): 0.288
relative viability ([14]; first compound 0.08 µM): 0.577
relative viability ([14]; first compound 0.253 µM): 0.494
relative viability ([14]; first compound 0.8 µM): 0.48
relative viability ([14]; first compound 2.53 µM): 0.516
relative viability ([15]; first compound 0.08 µM): 0.634
relative viability ([15]; first compound 0.253 µM): 0.457
relative viability ([15]; first compound 0.8 µM): 0.481
relative viability ([15]; first compound 2.53 µM): 0.481
relative viability ([16]; first compound 0.08 µM): 0.741
relative viability ([16]; first compound 0.253 µM): 0.686
relative viability ([16]; first compound 0.8 µM): 0.737
relative viability ([16]; first compound 2.53 µM): 0.653
relative viability ([17]; first compound 0.08 µM): 0.328
relative viability ([17]; first compound 0.253 µM): 0.32
relative viability ([17]; first compound 0.8 µM): 0.248
relative viability ([17]; first compound 2.53 µM): 0.201
relative viability ([18]; first compound 0.08 µM): 0.561
relative viability ([18]; first compound 0.253 µM): 0.497
relative viability ([18]; first compound 0.8 µM): 0.555
relative viability ([18]; first compound 2.53 µM): 0.555
relative viability ([19]; first compound 0.08 µM): 0.311
relative viability ([19]; first compound 0.253 µM): 0.235
relative viability ([19]; first compound 0.8 µM): 0.311
relative viability ([19]; first compound 2.53 µM): 0.328
relative viability ([20]; first compound 0.08 µM): 0.479
relative viability ([20]; first compound 0.253 µM): 0.526
relative viability ([20]; first compound 0.8 µM): 0.524
relative viability ([20]; first compound 2.53 µM): 0.511
relative viability ([21]; first compound 0.08 µM): 0.311
relative viability ([21]; first compound 0.253 µM): 0.316
relative viability ([21]; first compound 0.8 µM): 0.308
relative viability ([21]; first compound 2.53 µM): 0.325
relative viability ([22]; first compound 0.08 µM): 0.621
relative viability ([22]; first compound 0.253 µM): 0.543
relative viability ([22]; first compound 0.8 µM): 0.614
relative viability ([22]; first compound 2.53 µM): 0.563
relative viability ([23]; first compound 0.08 µM): 0.8
relative viability ([23]; first compound 0.253 µM): 0.623
relative viability ([23]; first compound 0.8 µM): 0.646
relative viability ([23]; first compound 2.53 µM): 0.593
